What was measured:
[1] = system: rat model of hyperlipidemia induced by high cholesterol diet; assay: Rat model of hyperlipidemia induced by high cholesterol diet (serum TG, NEFA); type: in vivo, Sprague-Dawley rats; conditions: for Serum TG / Serum NEFA: mean ± SD, n=6; for Serum TG and NEFA levels compared with the vehicle group: Day 8, both 0.2 mg/kg and 0.6 mg/kg
Source text: On the day before the start of the administration (Day 0), the animals were divided into 7 groups based on body weights and serum indicators and were continually fed with the high-cholesterol diet. The treatment groups were orally dosed with either compound or vehicle while continuing the high-cholesterol diet for a total of 1 week. The animals were weighed daily before the treatment, and the compounds were given at 9:00-9:30 in the morning based on the body weight of the day.

[2] = 7-day repeated oral gavage, body weights of ICR mice; type: in vivo; conditions: for Weight Gain compared with Day 0: n=10
Source text: After 3 days of acclimatization, ICR mice were grouped according to their body weights. The day of grouping is designated as Day 0. […] The animals were weighed and recorded daily.

[3] = system: db/db type 2 diabetes model; assay: Pharmacodynamics study on the db/db type 2 diabetes model; conditions: for Average daily body weights compared with the vehicle group: Day 10 to Day 15, Compound 2 0.05, 0.2, 1 mg/kg; for Statistical difference (p) of the blood glucose level between treatment group and vehicle group: random blood glucose
Source text: 45 db/db mice were evenly divided into 5 groups before the initiation of treatment based on the body weights, serum triglyceride (TG) levels, and random blood glucose levels.
All animals were weighed daily before each dosing and treated daily for 14 consecutive days.
All the data was imported into an Excel file and presented as Mean±SEM. Graphpad Prism 7.0 software was used for data statistical analysis by One-way or Two-way ANOVA, with P<0.05 as the criterion of significant differences.

[4] = system: rat model of unilateral ureteral obstruction; assay: Renal injury in rat model of unilateral ureteral obstruction; conditions: 0.2 mg/kg oral daily, 14 treatment days
Description: Housing temperature was maintained at 20-26° C. and humidity at 40%-60%. Rats were fed with a standard chow and allowed to access food and water ad libitum.
The formulation was prepared twice a week.
Vehicle or compounds were administrated by orally gavage daily. Unilateral ureteral obstruction was performed on the second day of compound treatment. Animals in model group, reference group and compound group underwent urethral ligation under isoflurane anesthesia one hour after receiving compound administration. A flank incision was cut to expose the left ureter, and a 4-0 surgical suture was used to perform two-point ligation to achieve urethral obstruction. Ureter was cut between the two ligation points. Animals in the control group were subjected to the same surgical treatment except the ligation and cut.
Rats were sacrificed after 14 days' compound treatment. The obstructed kidney was weighed and collected for histology. The tissue samples were fixed with formalin, and then paraffin embedded. The embedded tissue was sectioned and stained with hematoxylin & eosin and Masson trichrome to assess kidney structure and fibrosis.
The multiple comparison was analyzed with the Kruskal-Wallis non-parameter test. The Dunn's test was used to compare the difference to the model group.

[5] = system: uninephrectomied db/db mice; assay: Diabetic nephropathy pharmacodynamic model (uninephrectomied db/db mice); conditions: Compound 2 treatment, oral once per day
Description: Housing temperature was maintained at 22-26° C. and humidity at 40%-60%. Mice were allowed to access food and water ad libitum. […] Buprenorphine was applied after surgery.
Two weeks after surgery, db/db mice were randomly assigned into 5 groups. Wild type mice were used for the control animals. […] Compounds were orally administrated once per day for 10 weeks.
At the 5th and 9th week after compound administration, mice were placed in metabolic cages for urine collection. Albumin level was measured for 24 hr albumin excretion calculation. At the 10th week after treatment, the animals were sacrificed for kidney dissection. The kidney was fixed in 10% neutral buffed formalin, then paraffin-embedded for histopathological analysis. Glomerulosclerosis was assessed by evaluating glomerular basement membrane, mesangial expansion, nodular sclerosis and glomerulosclerosis.
Graphpad 8.0 software was used for statistical analysis. The difference between the values were analyzed with one-way ANOVA. The difference between histopathological score was analyzed with Kruskal-Wallis nonparameter test.

[6] = Day 0 (day before treatment), group later dosed 0.2 mg/kg oral QD x 7 days
[7] = Day 0 (day before treatment), group later dosed 0.6 mg/kg oral QD x 7 days
[8] = Day 8, 0.2 mg/kg oral QD x 7 days
[9] = Day 8, 0.6 mg/kg oral QD x 7 days
[10] = 1 mg/kg (Aleglitazar: Day 6; Compound 2: Day 4 and 5; Compounds 4 and 10: Day 4 to Day 7)
[11] = 0.2 mg/kg (Aleglitazar: Day 4 and Day 5; Compound 2: throughout the study)

## [2H]c1c([2H])c([2H])c(-c2nc(CCOc3ccc(C[C@H](OC)C(=O)O)c4sccc34)c(C)o2)c([2H])c1[2H] (single isomer, unassigned) [Compound 4]
[1]; [6]
  Serum TG: 4.22 ± 1.71 mmol/L
[1]; [7]
  Serum TG: 4.00 ± 1.71 mmol/L
[1]; [8]
  Serum NEFA: 490.33 ± 113.61 µmol/L
  Serum TG: 2.46 ± 1.18 mmol/L
[1]; [9]
  Serum NEFA: 347.83 ± 113.61 µmol/L
  Serum TG: 1.93 ± 0.58 mmol/L
[2]; [10]
  Daily average weight gain compared with the vehicle group: significantly higher
[2]; Day 1, 1 mg/kg oral QD
  Weight Gain compared with Day 0: 0.35 ± 0.24 g
[2]; Day 2, 1 mg/kg oral QD
  Weight Gain compared with Day 0: 1.45 ± 0.34 g
[2]; Day 3, 1 mg/kg oral QD
  Weight Gain compared with Day 0: 2.75 ± 0.41 g
[2]; Day 4, 1 mg/kg oral QD
  Weight Gain compared with Day 0: 3.71 ± 0.46 g
[2]; Day 5, 1 mg/kg oral QD
  Weight Gain compared with Day 0: 4.26 ± 0.47 g
[2]; Day 6, 1 mg/kg oral QD
  Weight Gain compared with Day 0: 5.36 ± 0.54 g
[2]; Day 7, 1 mg/kg oral QD
  Weight Gain compared with Day 0: 5.91 ± 0.56 g

## CO[C@@H](Cc1ccc(OCCc2nc(-c3ccccc3)oc2C)c2ccsc12)C(=O)O [Aleglitazar, aleglitazar, reference compound]
[1]; [6]
  Serum TG: 4.24 ± 1.18 mmol/L
[1]; [7]
  Serum TG: 4.09 ± 2.17 mmol/L
[1]; [8]
  Serum NEFA: 706.00 ± 190.15 µmol/L
  Serum TG: 2.86 ± 0.86 mmol/L
[1]; [9]
  Serum NEFA: 327.83 ± 90.73 µmol/L
  Serum TG: 1.47 ± 0.46 mmol/L
[1]
  Serum TG and NEFA levels compared with the vehicle group: significantly reduce
[2]; [11]
  Daily average weight gain compared with the vehicle group: significantly higher
[2]; [10]
  Daily average weight gain compared with the vehicle group: significantly higher
[2]; Day 1, 0.2 mg/kg oral QD
  Weight Gain compared with Day 0: 0.48 ± 0.27 g
[2]; Day 2, 0.2 mg/kg oral QD
  Weight Gain compared with Day 0: 1.66 ± 0.39 g
[2]; Day 2, 1 mg/kg oral QD
  Weight Gain compared with Day 0: 1.64 ± 0.26 g
[2]; Day 3, 0.2 mg/kg oral QD
  Weight Gain compared with Day 0: 2.62 ± 0.42 g
[2]; Day 3, 1 mg/kg oral QD
  Weight Gain compared with Day 0: 2.61 ± 0.51 g
[2]; Day 4, 0.2 mg/kg oral QD
  Weight Gain compared with Day 0: 3.50 ± 0.42 g
[2]; Day 4, 1 mg/kg oral QD
  Weight Gain compared with Day 0: 3.33 ± 0.54 g
[2]; Day 5, 0.2 mg/kg oral QD
  Weight Gain compared with Day 0: 3.92 ± 0.4 g
[2]; Day 5, 1 mg/kg oral QD
  Weight Gain compared with Day 0: 3.86 ± 0.49 g
[2]; Day 6, 0.2 mg/kg oral QD
  Weight Gain compared with Day 0: 4.81 ± 0.37 g
[2]; Day 6, 1 mg/kg oral QD
  Weight Gain compared with Day 0: 4.98 ± 0.52 g
[2]; Day 7, 0.2 mg/kg oral QD
  Weight Gain compared with Day 0: 5.39 ± 0.56 g
[2]; Day 7, 1 mg/kg oral QD
  Weight Gain compared with Day 0: 5.34 ± 0.50 g
[3]; Day 6 and Day 12, Aleglitazar 0.2 mg/kg, Compound 2 at different dosages
  Serum TG levels compared with the vehicle group: significantly lower
[3]; Aleglitazar 0.2 mg/kg
  Average daily body weights compared with the vehicle group: significantly higher
[3]; OGTT Day 14, 0 min, 0.2 mpk
  Statistical difference (p) of the blood glucose level between OGTT treatment group and vehicle group: p < 0.001
[3]; OGTT Day 14, 15 min, 0.2 mpk
  Statistical difference (p) of the blood glucose level between OGTT treatment group and vehicle group: p < 0.01
[3]; OGTT Day 14, 30 min, 0.2 mpk
  Statistical difference (p) of the blood glucose level between OGTT treatment group and vehicle group: p > 0.05
[3]; OGTT Day 14, 60 min, 0.2 mpk
  Statistical difference (p) of the blood glucose level between OGTT treatment group and vehicle group: p < 0.01
[3]; OGTT Day 14, 120 min, 0.2 mpk
  Statistical difference (p) of the blood glucose level between OGTT treatment group and vehicle group: p < 0.01
[3]; Day 0, 0.2 mpk
  Statistical difference (p) of the blood glucose level between treatment group and vehicle group: p > 0.05
[3]; Day 7, 0.2 mpk
  Statistical difference (p) of the blood glucose level between treatment group and vehicle group: p < 0.05
[3]; Day 14, 0.2 mpk
  Statistical difference (p) of the blood glucose level between treatment group and vehicle group: p < 0.01
[4]
  Total score of renal focal lesions (infract, tubular dilation, tubular obstruction, fibrosis, necrosis) compared with model group: did not achieve statistically significant improvement

## [2H]C([2H])(Cc1nc(-c2ccccc2)oc1C)Oc1ccc(C[C@H](OC)C(=O)O)c2sccc12 (single isomer, unassigned) [Compound 2]
[5]
  Reduction of urine albumin: More than 50%
[1]; [6]
  Serum TG: 4.27 ± 1.61 mmol/L
[1]; [7]
  Serum TG: 4.11 ± 1.10 mmol/L
[1]; [8]
  Serum NEFA: 431.50 ± 151.63 µmol/L
  Serum TG: 1.71 ± 0.72 mmol/L
[1]; [9]
  Serum NEFA: 444.33 ± 119.12 µmol/L
  Serum TG: 1.86 ± 0.99 mmol/L
[2]; [11]
  Daily average weight gain compared with the vehicle group: no significant difference
[2]; [10]
  Daily average weight gain compared with the vehicle group: significantly higher
[2]; Day 1, 0.2 mg/kg oral QD
  Weight Gain compared with Day 0: 0.45 ± 0.28 g
[2]; Day 1, 1 mg/kg oral QD
  Weight Gain compared with Day 0: 0.4 ± 0.17 g
[2]; Day 2, 0.2 mg/kg oral QD
  Weight Gain compared with Day 0: 1.42 ± 0.22 g
[2]; Day 2, 1 mg/kg oral QD
  Weight Gain compared with Day 0: 1.57 ± 0.26 g
[2]; Day 3, 0.2 mg/kg oral QD
  Weight Gain compared with Day 0: 2.56 ± 0.23 g
[2]; Day 3, 1 mg/kg oral QD
  Weight Gain compared with Day 0: 2.71 ± 0.19 g
[2]; Day 4, 0.2 mg/kg oral QD
  Weight Gain compared with Day 0: 2.96 ± 0.23 g
[2]; Day 4, 1 mg/kg oral QD
  Weight Gain compared with Day 0: 3.61 ± 0.19 g
[2]; Day 5, 0.2 mg/kg oral QD
  Weight Gain compared with Day 0: 3.73 ± 0.34 g
[2]; Day 5, 1 mg/kg oral QD
  Weight Gain compared with Day 0: 3.96 ± 0.29 g
[2]; Day 6, 0.2 mg/kg oral QD
  Weight Gain compared with Day 0: 4.66 ± 0.39 g
[2]; Day 6, 1 mg/kg oral QD
  Weight Gain compared with Day 0: 4.84 ± 0.4 g
[2]; Day 7, 0.2 mg/kg oral QD
  Weight Gain compared with Day 0: 5.08 ± 0.42 g
[2]; Day 7, 1 mg/kg oral QD
  Weight Gain compared with Day 0: 5.44 ± 0.36 g
[3]; Aleglitazar 0.2 mg/kg
  Average daily body weights compared with the vehicle group: significantly higher
[3]; OGTT Day 14, 0 min, 0.05 mpk
  Statistical difference (p) of the blood glucose level between OGTT treatment group and vehicle group: p > 0.05
[3]; OGTT Day 14, 0 min, 0.2 mpk
  Statistical difference (p) of the blood glucose level between OGTT treatment group and vehicle group: p < 0.01
[3]; OGTT Day 14, 0 min, 1 mpk
  Statistical difference (p) of the blood glucose level between OGTT treatment group and vehicle group: p < 0.0001
[3]; OGTT Day 14, 15 min, 0.05 mpk
  Statistical difference (p) of the blood glucose level between OGTT treatment group and vehicle group: p > 0.05
[3]; OGTT Day 14, 15 min, 0.2 mpk
  Statistical difference (p) of the blood glucose level between OGTT treatment group and vehicle group: p > 0.05
[3]; OGTT Day 14, 15 min, 1 mpk
  Statistical difference (p) of the blood glucose level between OGTT treatment group and vehicle group: p < 0.0001
[3]; OGTT Day 14, 30 min, 0.05 mpk
  Statistical difference (p) of the blood glucose level between OGTT treatment group and vehicle group: p > 0.05
[3]; OGTT Day 14, 30 min, 0.2 mpk
  Statistical difference (p) of the blood glucose level between OGTT treatment group and vehicle group: p > 0.05
[3]; OGTT Day 14, 30 min, 1 mpk
  Statistical difference (p) of the blood glucose level between OGTT treatment group and vehicle group: p < 0.05
[3]; OGTT Day 14, 60 min, 0.05 mpk
  Statistical difference (p) of the blood glucose level between OGTT treatment group and vehicle group: p > 0.05
[3]; OGTT Day 14, 60 min, 0.2 mpk
  Statistical difference (p) of the blood glucose level between OGTT treatment group and vehicle group: p < 0.01
[3]; OGTT Day 14, 60 min, 1 mpk
  Statistical difference (p) of the blood glucose level between OGTT treatment group and vehicle group: p < 0.0001
[3]; OGTT Day 14, 120 min, 0.05 mpk
  Statistical difference (p) of the blood glucose level between OGTT treatment group and vehicle group: p > 0.05
[3]; OGTT Day 14, 120 min, 0.2 mpk
  Statistical difference (p) of the blood glucose level between OGTT treatment group and vehicle group: p < 0.05
[3]; OGTT Day 14, 120 min, 1 mpk
  Statistical difference (p) of the blood glucose level between OGTT treatment group and vehicle group: p < 0.001
[3]; Day 0, 0.05 mpk
  Statistical difference (p) of the blood glucose level between treatment group and vehicle group: p > 0.05
[3]; Day 0, 0.2 mpk
  Statistical difference (p) of the blood glucose level between treatment group and vehicle group: p > 0.05
[3]; Day 0, 1 mpk
  Statistical difference (p) of the blood glucose level between treatment group and vehicle group: p > 0.05
[3]; Day 7, 0.05 mpk
  Statistical difference (p) of the blood glucose level between treatment group and vehicle group: p > 0.05
[3]; Day 7, 0.2 mpk
  Statistical difference (p) of the blood glucose level between treatment group and vehicle group: p > 0.05
[3]; Day 7, 1 mpk
  Statistical difference (p) of the blood glucose level between treatment group and vehicle group: p < 0.05
[3]; Day 14, 0.05 mpk
  Statistical difference (p) of the blood glucose level between treatment group and vehicle group: p > 0.05
[3]; Day 14, 0.2 mpk
  Statistical difference (p) of the blood glucose level between treatment group and vehicle group: p < 0.05
[3]; Day 14, 1 mpk
  Statistical difference (p) of the blood glucose level between treatment group and vehicle group: p < 0.0001

## [2H]c1cccc([2H])c1-c1nc(CC([2H])([2H])Oc2ccc(C[C@H](OC)C(=O)O)c3sccc23)c(C)o1 (single isomer, unassigned) [Compound 10]
[2]; [10]
  Daily average weight gain compared with the vehicle group: significantly higher
[2]; Day 1, 1 mg/kg oral QD
  Weight Gain compared with Day 0: 0.34 ± 0.17 g
[2]; Day 2, 1 mg/kg oral QD
  Weight Gain compared with Day 0: 1.63 ± 0.41 g
[2]; Day 3, 1 mg/kg oral QD
  Weight Gain compared with Day 0: 2.96 ± 0.37 g
[2]; Day 4, 1 mg/kg oral QD
  Weight Gain compared with Day 0: 3.85 ± 0.38 g
[2]; Day 5, 1 mg/kg oral QD
  Weight Gain compared with Day 0: 4.59 ± 0.39 g
[2]; Day 6, 1 mg/kg oral QD
  Weight Gain compared with Day 0: 5.75 ± 0.39 g
[2]; Day 7, 1 mg/kg oral QD
  Weight Gain compared with Day 0: 6.11 ± 0.53 g

## CO[C@@H](Cc1ccc(OCCc2nc(-c3ccccc3)oc2C)c2ccsc12)C(=O)O (single isomer, unassigned) [Compound 4]
[1]; 0.2 mg/kg, T-test, P<0.05
  Serum NEFA compared with Aleglitazar: significantly reduce
[1]
  Serum TG and NEFA levels compared with the vehicle group: significantly reduce
